As usually defined, the EC50 is the concentration giving half of the maximal effect.

Values joined by “and” are separate entries in the source; they are usually repeats but may differ in a detail not shown here. Equal entries are not always repeated.

The values that follow come from patent US5268389A, “Thiocarboxylate ester compounds compositions containing the same” (priority 1990, dated 1993).

The test system of assay [1] is HIV. As to the kind of experiment: microbe, parasite or virus in culture. Type of assay: cell-based. Particulars: CEM cells, free HIV, read-out: Activity of Anti-HIV Compounds (EC50), CEMV. On the procedure:
(§1) The compounds of Examples were tested for anti-AIDS activity by subjecting them to standard National Cancer Institute ("NCI") in vitro screening procedures. In carrying out each test, two blanks were run. In the first blank, HIV and a culture of a standard human cell line were incubated together to measure the infectivity of the virus. The viability of the cells was measured after holding for six or seven days. In an "effective" test, most cells were infected before the holding period was complete.
In the second blank, the cell line culture and the compound being tested (but not virus) were incubated together to measure the toxicity of the drug to the cellline. The viability of the cells was measured as a function of concentration of the compound, after holding for seven days. Typically, the cells survive at low compound concentrations, but at some higher concentration, toxicity of the compound is manifested and the cells die. The concentration of the test compound that results in 50% inhibition of cell growth is defined as the IC50.
(§2) Finally, the protective effects of the test compounds were measured. Each cell culture and test compound were incubated with the virus and the viability of the cells was measured as a function of compound concentration after holding for six or seven days. If the compound is active in protecting the cells against the virus, there is typically low cell viability until an effective concentration of the test compound is reached. At this point, cell viability increases steadily toward 100% unless the toxic effect of the compound (as measured in the second blank) takes effect. The concentration of the test compound that results in 50% "control," i.e., a 50% reduction of the viral cytopathic effect, is defined as the EC 50. The therapeutic index TI50 is calculated as IC50/EC50.
(§3) Values of test compound concentrations required for between 20 and 50% reduction of the viral cytopathic effect can also be determined. Such compounds are classified as moderately active.
(§4) The compounds were tested to determine their reduction of HIV cytopathic effect on the human cell lines CEM and MT2. Tests were done by innoculating these cell lines either with free HIV (V) or with a virus Previously cultured with host cells (C). Thus, in Table III the designation CEMV means CEM line cells innoculated with free virus and MT2C means MT2 cells innoculated with cultured viral infected MT2 cells. In some cases the compound was also tested on a cell line together with a sub-effective amount of the known HIV viricide AZT. This is done to test possible synergistic effects. Such a test on the CEM line is denoted CEMZ.
(§5) 1) T4 lymphocytes (CEM cell line) are exposed to HIV at a virus to cell ratio of approximately 0.05 and plated along with non-infected control cells in 96-well microtiter plates.
(§6) 2) Each candidate agent is dissolved in dimethyl sulfoxide (unless otherwise indicated), then diluted 1:200 in cell culture medium. Further dilutions (five-fold) are prepared before adding to an equal volume of medium containing either infected or noninfected cells.
(§7) 3) Cultures are incubated at 37° C. in a 5% carbon dioxide atmosphere for seven days (if six days the CEMV test is identified as CEM-6).
(§8) 4) The tetrazolium salt, XTT, is added to all wells, and cultures are incubated to allow formazan color development by viable cells.
(§9) 5) Individual wells are analyzed spectrophotometrically to quantity formazan production, and in addition are viewed microscopically for detection of viable cells and confirmation of protective activity.
(§10) 6) Drug-treated virus-infected cells are compared with drug-treated non-infected cells and with other appropriate controls (untreated infected and untreated non-infected cells, drug-containing wells without cells, etc.) on the same plate.
7) A determination of activity is made. […]

Assay [2] deals with HIV. As to the kind of experiment: Reduction of HIV cytopathic effect, CEM-6 (CEMV test, six days). Type of assay: cell-based. Particulars: CEM cells; for EC50: free HIV, read-out: Activity of Anti-HIV Compounds (EC50), CEM-6; for Activity class of Anti-HIV Compounds, CEM-6: inhibition of viral cytopathic effect, 8640 min. As to the method:
as §1, §2, §3, §4, §5, §6, §7, §8, §9, §10
(In general: Cytopathic effects are the visible damage that an infection or toxin causes in cultured cells.)

Setting [3] is: Human immunodeficiency virus 1, CCRF-CEM.
The mark [4] stands for this setting: Human immunodeficiency virus 1, CCRF-CEM, 144 h.

Consider `CC1=C(C(=O)Nc2cccc(C(=O)OC(C)C)c2)SCCO1` [Compound 10, 1-Methylethyl 3-[[(5,6-dihydro-2-methyl-1,4-oxathiin-3-yl)carbonyl]amino]benzoate], for which the values for the EC50 in assay [1] and in assay [1] (setting [3]) were 2.9 µM and 3 µM, respectively.

As for `CC1=C(C(=O)Nc2cc(C(=O)OC(C)C)ccc2F)SCCO1` [Compound 13, 1-Methylethyl 3-[[(5,6-dihydro-2-methyl-1,4-oxathiin-3-yl)carbonyl]amino]-4-fluorobenzoate], the EC50 in assay [1] was determined as 13.2 µM; in assay [1] (setting [3]) it was 15.2 µM.

Turning to `CCOC(=O)c1ccc(C)c(NC(=O)C2=C(C)OCCS2)c1` [Compound 14, Ethyl 3-[[(5,6-dihydro-2-methyl-1,4-oxathiin-3-yl)carbonyl]amino]-4-methylbenzoate], the EC50 in assay [1] was 5.2 µM; in assay [1] (setting [3]) it was 7.6 µM.

Take `CCCCCOC(=O)c1cc(NC(=O)C2=C(C)OCCS2)ccc1Cl` [Compound 15, Pentyl 2-chloro-5-[[(5,6-dihydro-2-methyl-1,4-oxathiin-3-yl)carbonyl]amino]benzoate]: the values for the EC50 in assay [1] and in assay [1] (setting [3]) were 0.61 µM and 0.82 µM, respectively.

With `CC(C)OC(=O)c1cc(NC(=O)c2c(Br)c(Br)c(Br)c(Br)c2C(=O)O)c(F)cc1Cl` [Compound 20, 2,3,4,5-Tetrabromo-6-[[[4-chloro-2-fluoro-5-[(1-methylethoxy)carbonyl]phenyl]amino]carbonyl]benzoic acid], the EC50 in assay [1] is 58.7 µM and 69.4 µM and 54.5 µM; in assay [1] (setting [3]), 69.5 µM.

On to `CC(C)OC(=O)c1cc(NC(=O)c2c(Br)c(Br)c(Br)c(Br)c2C(=O)O)ccc1Cl` [Compound 21, 2,3,4,5-Tetrabromo-6-[[[4-chloro-3-[(1-methylethoxy)carbonyl]phenyl]amino]carbonyl]benzoic acid], for which the EC50 in assay [1] came to 36.2 µM; in assay [1] (setting [3]), 58.2 µM.

Take `CC1=C(C(=O)Nc2ccc(Cl)c(C(=O)OC(C)C)c2)SCCS1` [Compound 27, 1-Methylethyl 2-chloro-5[[(5,6-dihydro-3-methyl-1,4-dithiin-2-yl)carbonyl]amino]benzoate]: the EC50 came to 0.81 µM in assay [1] and 1.38 µM in assay [1] (setting [3]).

`CC(C)OC(=O)c1cc(NC(=O)C(C)(C)C)c(F)cc1Cl` [Compound 30, 1-Methylethyl 2-chloro-5-[(2,2-dimethyl-1-oxopropyl)amino]-4-fluorobenzoate]: in assay [1] (setting [3]), the EC50 was 42.7 µM.

In the case of `CC(C)OC(=O)c1cc(NC(=S)OC(C)C)ccc1Cl` [Compound 32, 1-Methylethyl 2-chloro-5-[[(1-methylethoxy)thioxomethyl]amino]benzoate], the EC50 in assay [1] was 0.059 µM and 0.03 µM; in assay [1] (setting [3]) it was 0.035 µM.

With `CC(C)OC(=O)c1cc(NC(=S)OC2CCCCC2)ccc1Cl` [Compound 44], the EC50 is 1340 nM in assay [2] and 760 nM in assay [2] (setting [4]).

For `CC(C)OC(=O)c1cc(NC(=S)OCC2CC2)ccc1Cl` [Compound 46], in assay [2], the EC50 was determined as 53 nM.

As to `CC(C)OC(=O)c1cc(NC(=S)N(C)C)ccc1Cl` [Compound 48], in assay [2], the “Activity class of Anti-HIV Compounds, CEM-6” value (from here on “Activity class”) was “MA (moderate activity (MA), that is, inhibition between approximately 20 and 50%)”.

For the compound `CC(C)NC(=S)Nc1ccc(Cl)c(C(=O)OC(C)C)c1` [Compound 49], the “Activity class” value in assay [2] was “MA (moderate activity (MA), that is, inhibition between approximately 20 and 50%)”.

Take `COCCOC(=O)c1cc(NC(=O)C2=C(C)OCCS2)ccc1Cl` [Compound 69]: in assay [2] (setting [4]), the EC50 was determined as 340 nM.

In the case of `CCCC1=C(C(=O)Nc2ccc(Cl)c(C(=O)OCC)c2)SCCO1` [Compound 70, Ethyl 2-chloro-5-[[(5,6-dihydro-2-propyl-1,4-oxathiin-3-yl)carbonyl]amino]benzoate], the EC50 in assay [2] is 210 nM and 230 nM; in assay [2] (setting [4]), 170 nM.

For the compound `CCCC1=C(C(=O)Nc2ccc(Cl)c(C(=O)OC)c2)SCCO1` [Compound 71, Methyl 2-chloro-5-[[(5,6-dihydro-2-propyl-1,4-oxathiin-3-yl)-carbonyl]amino]benzoate], the 50% effective concentration (EC50) is 1830 nM and 1620 nM in assay [2]; 990 nM in assay [2] (setting [4]).

On to `CC1=C(C(=O)Nc2ccc(F)c(C(=O)OC(C)C)c2)SCCO1` [Compound 72], for which the concentration for a half-maximal effect (EC50) in assay [2] was 590 nM and 340 nM; in assay [2] (setting [4]), 540 nM.

For the compound `CC1=C(C(=O)Nc2ccc(C)c(C(=O)OC(C)C)c2)SCCO1` [Compound 73], the EC50 came to 580 nM in assay [2] and 410 nM in assay [2] (setting [4]).

For the compound `CCC1=C(C(=O)Nc2ccc(Cl)c(C(=O)OCC(C)C)c2)SCCO1` [Compound 74, 2-Methylpropyl 2-chloro-5-[[(2-ethyl-5,6-dihydro-1,4-oxathiin-3-yl)carbonyl]amino]benzoate], the EC50 in assay [2] (setting [4]) is 38900 nM.

For `CCCOC(=O)c1ccc(C)c(NC(=O)C2=C(C)OCCS2)c1` [Compound 75, Propyl 3-[[(5,6-dihydro-2-methyl-1,4-oxathiin-3-yl)carbonyl]amino]-4-methylbenzoate], the EC50 in assay [2] was 908 nM; in assay [2] (setting [4]) it was 1060 nM.

Take `CCCCOC(=O)c1cccc(NC(=O)C2=C(C)OCCS2)c1` [Compound 76]: the “Activity class” value in assay [2] was “MA (moderate activity (MA), that is, inhibition between approximately 20 and 50%)”.

As for `Cc1occc1C(=O)Nc1ccc(Cl)c(C(=O)OC(C)C)c1` [Compound 79, 1-Methylethyl 2-chloro-5-[[(2-methyl-3-furanyl)carbonyl]amino]benzoate], the EC50 in assay [2] was 3300 nM.

As to `Cc1coc(C)c1C(=O)Nc1ccc(Cl)c(C(=O)OC(C)C)c1` [Compound 80, 1-Methylethyl 2-chloro-5-[[(2,4-dimethyl-3-furanyl)carbonyl]amino]benzoate], the EC50 in assay [2] was 2300 nM.

In the case of `Cc1cc(C(=O)Nc2ccc(Cl)c(C(=O)OC(C)C)c2)c(C)o1` [Compound 81, 1-Methylethyl 2-chloro-5-[[(2,5-dimethyl-3-furanyl)carbonyl]amino]benzoate], the EC50 in assay [2] (setting [4]) was 420 nM.

With `COCCOC(=O)c1cc(NC(=O)c2ccccc2)ccc1Cl` [Compound 84, 2-Methoxyethyl 5-[benzoylamino)-2-chlorobenzoate], in assay [2], the “Activity class” value was “MA (moderate activity (MA), that is, inhibition between approximately 20 and 50%)”.

Turning to `CCOC(=O)c1cc(NC(=O)c2ccccc2OC)ccc1Cl` [Compound 86, Ethyl 2-chloro-5-[(2-methoxybenzoyl)amino]benzoate], the EC50 was determined as 1360 nM in assay [2] and 1740 nM in assay [2] (setting [4]).

For `CCOC(=O)c1cc(NC(=O)c2ccccc2)ccc1Cl` [Compound 87, Ethyl 5-(benzoylamino)-2-chlorobenzoate], in assay [2], the “Activity class” value is “MA (moderate activity (MA), that is, inhibition between approximately 20 and 50%)”.

On to `CC(C)OC(=O)c1cc(NC(=O)c2ccccc2Cl)ccc1Cl` [Compound 90, 1-Methylethyl 2-chloro-5-[(2-chlorobenzoyl)amino]benzoate], for which the “Activity class” value in assay [2] is “MA (moderate activity (MA), that is, inhibition between approximately 20 and 50%)”.

On to `CC(C)=CC(=O)Nc1ccc(Cl)c(C(=O)OC(C)C)c1` [Compound 91, 1-Methylethyl 2-chloro-5-[(3-methyl-1-oxo-2-butenyl)amino]-benzoate], for which the “Activity class” value in assay [2] is “MA (moderate activity (MA), that is, inhibition between approximately 20 and 50%)”.

For the compound `C#CCOC(=O)Nc1ccc(Cl)c(C(=O)OC(C)C)c1` [Compound 92, 1-Methylethyl 2-chloro-5-[((2-propynyloxy)carbonyl]amino]benzoate], in assay [2], the “Activity class” value is “MA (moderate activity (MA), that is, inhibition between approximately 20 and 50%)”.

On to `Cc1nc(C(=O)Nc2ccc(Cl)c(C(=O)OC(C)C)c2)c(-c2ccccc2)o1` [Compound 103], for which the “Activity class” value in assay [2] was “MA (moderate activity (MA), that is, inhibition between approximately 20 and 50%)”.
